# Where “and” joins values, the source holds several entries; their conditions need not be identical. Equal values may be shown once. Read-outs that look alike come from different tables or passages of the source.
# How the values were obtained:
# [1] = mouse, in vivo
# Description: (§1) A mouse at two weeks old was gavaged with Liraglutide, or not treated with Liraglutide to serve as a control mouse. Two hours later, the pancreas of the mouse was collected and homogenized, and a protein extract was centrifuged. Thereafter the ELISA essay was conducted.
# (§2) Experimental mice, at two weeks old, were gavaged with Semaglutide GLP-1 at 0.16 mg/mouse, and control mice received no orally administered Semaglutide GLP-1. Two hours later, the pancreas and brain were collected and homogenized, and protein extracts were subjected to an ELISA assay.
# [2] = in vivo
# Description: (§3) The concentrations of each reagent are as follows: • Liraglutide: 1.5 mM • EDTA: 5 to 10 mM • Zinc acetate: 15-100 mM Referring to FIGS. 1-7, an enzyme-linked immunosorbent assay (ELISA) was performed on the sera of mice orally administered with Liraglutide following the PSIM process.
# (§4) In this assay, a mouse (at two weeks old) was gavaged with Liraglutide in contrasts to a control mouse to which no Liraglutide was administered. After two hours, serum was collected, and an ELISA assay performed.
# (§5) Two hours later, serum was collected, and an ELISA assay was performed.
# [3] = mouse, in vivo, po
# Description: (§6) A quantitative ELISA assay to determine the absorption rate was also performed. The experimental mouse was sacrificed and whole body fluid collected one hour after feeding with Liraglutide. The intensity of the color was compared with that of a standard curve constructed by standard Liraglutide.
# (§7) A quantitative ELISA assay was performed to determine the absorption rate, and the mice were sacrificed and whole body fluid collected one hour after feeding with Semaglutide GLP-1. […] The intensity of the color was compared with that of a standard curve constructed by standard Semaglutide GLP-1.
# [4] = orally administered in combination with absorption enhancer such as Salcaprozate sodium (SNAC); cited from earlier work
# [5] = Quantitative ELISA assay of whole body fluid to determine the absorption rate; conditions: oral; whole body fluid collected one hour after feeding; color intensity vs standard curve
# Description: as §6, §7
# [6] = ELISA assay of pancreas and brain extracts of orally dosed mice; conditions: two hours after gavage at 0.16 mg/mouse, mice two weeks old
# Description: as §1, §2
# blood glucose [7] = assay: Glucose tolerance in human subject (blood glucose AUC); format: in vivo
# Description: A human subject was orally given 10 mg Semaglutide GLP-1 prepared as described in FIG. 8 at −2 minutes. A control human subject was not administered any Semaglutide GLP-1 At time zero, 15 g glucose was orally given. Blood glucose levels were monitored every fifteen minutes thereafter for ninety minutes. The area-under-curve (AUC), which represents the quantity of glucose in the blood was then determined.
# [8] = ELISA assay of sera/plasma of mice orally administered with PSIM-processed GLP-1 analog; conditions: serum collected two hours after gavage, mouse two weeks old, vs control mouse
# Description: as §3, §4, §5
# [9] = Body weight change in mice given oral GLP-1 analog; format: in vivo, mouse; conditions: for % Body Weight Change / Body Weight (Day 1) / Body Weight (Day 7): individual Exp. mice
# Description: A quantity of orally administered Semaglutide GLP-1 was prepared as discussed in FIG. 8, and orally given to mice (Exp.) for seven days, along with control mice (Control) to which no Semaglutide GLP-1 was orally administered. Body weight was measured at the beginning and on the seventh day. The results are reflected in the following table:
# In one experiment, orally administered Tirzepatide GLP-1 caused weight loss in mice. A quantity of orally administered Tirzepatide GLP-1 was prepared as discussed above, and orally given to mice (Exp.) for five days, along with control mice (Control) to which no Tirzepatide GLP-1 was orally administered. Body weight was measured at the beginning and on the fifth day.
# blood glucose [10] = assay: Blood glucose in mice after oral glucose solution; format: in vivo, mouse; conditions: fasted four hours, 50 mg oral glucose
# Description: The orally administered Liraglutide was prepared by incubating Liraglutide at 1.7 mM in 9.6 mM EDTA for two hours, followed by incubation of the mixture with 15 mM zinc acetate for twelve hours to produce a Liraglutide for oral administration. The experimental mice were orally given 0.5 mg Liraglutide, and the control mice were administered a vehicle solution for 5 days. Thereafter, experimental and control mice were fasted for four hours followed by an orally given 50 mg glucose solution. Three and a half hours later, blood glucose was determined. The control mice were given a non-Liraglutide vehicle (N=3).
# The orally administered Semaglutide GLP-1 was prepared by incubating Semaglutide GLP-1 at 1.7 mM in 9.6 mM EDTA for two hours, followed by incubation of the mixture with 15 mM zinc acetate for twelve hours to produce a Semaglutide GLP-1 for oral administration. Experimental mice were orally given 0.5 mg Liraglutide, and control mice were given a vehicle solution for 5 days. Thereafter, experimental and control mice were fasted for four hours, followed by an orally given 50 mg glucose solution. Three and a half hours later blood glucose was determined. The control mice were given a non-Liraglutide vehicle (N=3).
# Orally administered Tirzepatide GLP-1 was also shown to lower blood glucose levels in mice. The orally administered Tirzepatide GLP-1 was prepared in the manner discussed above. Thereafter 0.15 mg of orally administered Tirzepatide GLP-1 was fed to mice for five days. The mice were fasted for four hours, then 50 mg of a glucose solution was orally given. Three hours later, blood glucose levels were determined. In three control mice, who received no orally administered Tirzepatide GLP-1, the glucose levels in mg/dl were 93, 95, and 88, respectively. In three experimental mice that received orally administered Tirzepatide GLP-1, the glucose levels were 50, 52, and 47, respectively. […]
molecule,measurement,setting,value
CCCCCCCCCCCCCCCC(=O)N[C@@H](CCC(=O)NCCCC[C@H](NC(=O)[C@H](C)NC(=O)[C@H](C)NC(=O)[C@H](CCC(N)=O)NC(=O)CNC(=O)[C@H](CCC(=O)O)NC(=O)[C@H](CC(C)C)NC(=O)[C@H](Cc1ccc(O)cc1)NC(=O)[C@H](CO)NC(=O)[C@H](CO)NC(=O)[C@@H](NC(=O)[C@H](CC(=O)O)NC(=O)[C@H](CO)NC(=O)[C@@H](NC(=O)[C@H](Cc1ccccc1)NC(=O)[C@@H](NC(=O)CNC(=O)[C@H](CCC(=O)O)NC(=O)[C@H](C)NC(=O)[C@@H](N)Cc1cnc[nH]1)[C@@H](C)O)[C@@H](C)O)C(C)C)C(=O)N[C@@H](CCC(=O)O)C(=O)N[C@@H](Cc1ccccc1)C(=O)N[C@H](C(=O)N[C@@H](C)C(=O)N[C@@H](Cc1c[nH]c2ccccc12)C(=O)N[C@@H](CC(C)C)C(=O)N[C@H](C(=O)N[C@@H](CCCNC(=N)N)C(=O)NCC(=O)N[C@@H](CCCNC(=N)N)C(=O)NCC(=O)O)C(C)C)[C@@H](C)CC)C(=O)O [Liraglutide],time at which substance appeared in the pancreas after gavage,[1],ninety
same,"presence of GLP-1 in orally dosed mouse vs control, all instances FIGS. 1-4",[2]; po,increased presence of GLP-1
same,presence in serum by ELISA (blue color),[2]; mouse,existence of Liraglutide in the serum
same,absorption rate,[3],seventy two
Semaglutide,bioavailability,[4],about 0.8%
Semaglutide [Semaglutide GLP-1],absorption rate,[5],approximately seventy
same,presence in brain extract by ELISA (blue color),[6],presence of orally administered Semaglutide GLP-1 in the pancreas and brain
same,presence in pancreas extract by ELISA (blue color),[6],presence of orally administered Semaglutide GLP-1 in the pancreas and brain
same,blood glucose area-under-curve (AUC),"blood glucose [7]; 10 mg orally at -2 minutes, 15 g oral glucose at time zero, monitored ninety minutes",232
same,AUC reduction vs control subject,"blood glucose [7]; 10 mg orally, 15 g oral glucose, ninety minutes",twenty six
same,presence in serum by ELISA (blue color),[8],existed in the experimental mouse serum
same,% Body Weight Change,[9]; Day 1 to Day 7 of oral dosing,−7% and +8%
same,Body Weight (Day 1),[9]; beginning of seven days oral dosing,28 g (2×) and 24 g
same,Body Weight (Day 7),[9]; seventh day of oral dosing,26 g (2×) and 28 g
same,body weight outcome relative to control mice,[9]; oral dosing for seven days,reduced weight gain or weight loss relative to the control mice
same,blood glucose (average),"blood glucose [10]; 0.5 mg orally for 5 days, measured three and a half hours later, N=3",45.00
same,"average difference in blood glucose, control mice vs treated mice","blood glucose [10]; 0.5 mg orally for 5 days, three and a half hours later",approximately 50%
Tirzepatide [Tirzepatide GLP-1],Body Weight (Day 1),[9]; beginning of five days oral dosing,26 g and 24 g and 28 g
same,% Body Weight Change,[9]; oral dosing for five days,−18% and −4.1% and −7.1%
same,Body Weight (Day 7),"[9]; oral dosing for five days, text says measured on the fifth day",22 g and 23 g and 26 g
same,body weight outcome relative to control mice,[9]; oral dosing for five days,reduced weight gain or weight loss relative to the control mice
same,glucose levels,"blood glucose [10]; individual mice, 0.15 mg orally for five days, three hours later",50 mg/dL and 52 mg/dL and 47 mg/dL

# — patent US20250235509A1, “Formulation and Method of Preparing Glucagon-like Peptide-1 (GLP-1) for Oral Administration” (priority 2024, published 2025)
